Peptide text beside a SMILES is read from it.
Columns and labels:
U87R xenografts = experiment: In vivo phage homing, U87R xenografts, anti-M13 immunohistochemistry; set-up: species or system SCID mice; details: H10 phage perfused in mice carrying U87R tumors; signal within tumor mass or peritumoral; method uses mannitol pretreatment
Experimental: FIG. 6A illustrates the in vivo homing capability of H10. Invasive U87R or non-invasive U87T cells were grown in the right brain hemisphere of SCID mice. Once tumors were established, mice were anaesthetized and perfused with H10 phage for 10 minutes. Unbound phage was flushed from the system with PBS. Brains were cryosectioned and immunohistochemically stained for M13 phage or human nuclear antigen (hNA).
The ability of the selected phage or their corresponding peptides was examined for their ability to ‘home’ to their respective U87R or BTIC glioma cell targets in vivo, according to their ability to detect glioma cells in an orthotopic xenograft model. In the case of H10, SCID mice carrying U87R or U87T xenografts were injected with the test phage for ten minutes, which was subsequently perfused with PBS to remove any unbound particles.
3×10^4 U87T cells, 3×10^5 U87R cells or 5×10^4 BTICs were injected in a 3 μL volume into one brain hemisphere of a SCID mouse and allowed to grow for 4, 6 or 12 weeks respectively. […]
Serial sections were fixed with cold acetone, and rehydrated through an ethanol gradient. […] Avidin-biotin peroxidase complexes were then formed using the VECTASTAIN Elite ABC kit (Vector Laboratories) and detected by addition of […] […]

[1] = Water solubility of peptide; type: physicochemical; details: three N-terminal residues (KKG) added
Description: In one aspect, the invention includes a peptide composition for targeting either (i) a highly invasive glioma cells (HIGC) subtype of human GBM cells, e.g., the U87R subtype of U87GM cells, or (ii) a brain tumor initiating cell (BTIC) subtype of human GBM cells, as characterized above. The peptide in the composition is 12-20 amino acid residues in length and contains one of the sequences identified as SEQ ID NOS-1-17, or a sequence that is at least 90% homologous with the given sequence. That is, the peptide has the same sequence as one of SEQ ID NOS: 1-17, or a sequence that differs from the given sequence by at most one amino acid residue. The peptide may contain only the given sequence of amino acids, or may contain additional N- and/or C-terminal residues up to a total of 20 residues. Thus, for example, the peptide corresponding to SEQ ID NO: 7, […] (H10), may have this exact sequence, the same sequence but with a single amino acid substitution, addition or deletion at any of the 12 residue positions, or a peptide having a total of up to eight additional residues at one or both of the N- or C-terminals.

[2] = test system: U87MG cells transfected with p75^NTR; experiment: Transwell migration assay, p75NTR-transfected U87MG; type: cell-based, human; details: in vitro invasion assay
Experimental: The membranes of 8 μm pore sized transwell inserts (Corning Costar) were coated with brain-like matrix (720 μL of 3 mg/mL collagen I (PureCol); 180 μL of 10×DMEM (Invitrogen); 9 uL of 1 mg/mL human plasma fibronectin (Sigma); 9 uL of 1 mg/mL chondroitin sulfate proteoglycans (Chemicon); 16 μL of 0.15 mg/mL laminin (Chemicon)) on both sides, allowed to dry, then plated with 5×10^4 cells in 100 μL media in the upper chamber and 500 μL media in the lower chamber. Inclusion of collagen was essential to see the inhibitory effect of H10 (FIG. S4). 3×10^10 pfu of test phage were added to the upper chambers containing the cells, which were incubated for 4 hours under normal culture conditions. At the end of the incubation, the media was aspirated and the cells were fixed and stained in 1% crystal violet in 95% ethanol for one minute. Transwells were rinsed in PBS, then cells on the upper membrane surfaces were removed with a cotton swab. Cells which had migrated to the undersurface of the membranes were counted by light microscopy, and the sum of cells in five microscopic fields was recorded for each membrane.

[3] = test system: lipid raft marker GM1 in U87R cells; type: cell-based, human; details: cholesterol oxidase, Alexa 555-cholera toxin B subunit, 120 minutes
p75^NTR in U87R cells = experiment: Sucrose/iodixanol density gradient fractionation with Western blot for p75NTR; type: cell-based, human; details: U87R cells on collagen, treated 2 hours, 10-40% sucrose/iodixanol gradient
Description: White arrows indicate higher molecular weight p75^NTR-containing complexes. Lines underneath the figure indicate the fractions in which common organelles are generally found;
The p75^NTR can be detected differentially in lipid rafts isolated with specific detergents, and must be proteolytically processed to trigger cell migration in glioma cells. Thus, it is probable that p75^NTR is also cleaved within a lipid raft after endocytosis. To determine if H10 may be having an impact on endosomally located p75^NTR, cells were hypertonically lysed (to keep vesicles and organelles at least partially intact) and separated on a 10-40% sucrose/iodixanol gradient from which fractions were individually collected.
Cells were scraped into 1 mL of 0.25M sucrose, 140 mM NaCl, 1 mM EDTA, 20 mM Tris-HCl, pH 8.0, and dounce homogenized until cells were no longer visible by microscopy. Debris was pelleted for 5 min, 800×g and the supernatant was loaded on top of a 10 mL continuous 10-40% gradient, prepared by the dilution of OptiPrep (Sigma, 60% iodixanol) with 0.25M sucrose, 140 mM NaCl, 3 mM EDTA, 60 mM Tris-HCl, pH8.0. Gradients were spun in a swinging bucket rotor at 48000×g for 18 hrs and 0.5 mL fractions were collected. Total protein was precipitated from each fraction by the addition of 2 volumes of −20° C. […]

[4] = test system: transferrin or its receptor (markers of clathrin-coated vesicles); experiment: FITC-transferrin uptake and transferrin receptor gradient fractionation; type: cell-based, human; details: U87p75 and U87R cells, 2 hours
Experimental: FIG. 9A are confocal images of p75^NTR transfected glioma cells (U87p75) imaged for uptake of FITC-transferrin.
Cells were lysed, fractioned using an iodixanol gradient, and Western Blot analysis for the transferrin receptor was performed;
Cells were scraped into 1 mL of 0.25M sucrose, 140 mM NaCl, 1 mM EDTA, 20 mM Tris-HCl, pH 8.0, and dounce homogenized until cells were no longer visible by microscopy. Debris was pelleted for 5 min, 800×g and the supernatant was loaded on top of a 10 mL continuous 10-40% gradient, prepared by the dilution of OptiPrep (Sigma, 60% iodixanol) with 0.25M sucrose, 140 mM NaCl, 3 mM EDTA, 60 mM Tris-HCl, pH8.0. Gradients were spun in a swinging bucket rotor at 48000×g for 18 hrs and 0.5 mL fractions were collected. Total protein was precipitated from each fraction by the addition of 2 volumes of −20° C. 20 mM DTT, 15% TCA, storage at −20° C. overnight, followed by centrifugation at 4° C. for 20 minutes. Pellets were resuspended in 20 μL 1M Tris and 20 μL 2× Laemmli buffer. The entire volume was loaded into a single well for SDS-PAGE resolution and western transfer.

Compound: CC[C@H](C)[C@H](NC(=O)[C@H](CO)NC(=O)[C@H](CC(N)=O)NC(=O)[C@@H](N)[C@@H](C)O)C(=O)N[C@@H](Cc1c[nH]c2ccccc12)C(=O)N[C@@H](Cc1ccc(O)cc1)C(=O)N[C@H](C(=O)N[C@@H](C)C(=O)N1CCC[C@H]1C(=O)N[C@@H](Cc1ccc(O)cc1)C(=O)N[C@@H](CCSC)C(=O)N[C@@H](Cc1ccccc1)C(=O)O)[C@@H](C)O [H10] (H-TNSIWYTAPYMF-OH; N-terminus and C-terminus assumed)
- crossing of the blood brain barrier (BBB) (U87R xenografts): has the ability to cross the blood brain barrier

Compound: CC[C@H](C)[C@H](NC(=O)[C@H](CO)NC(=O)[C@H](CC(N)=O)NC(=O)[C@@H](NC(=O)CNC(=O)[C@H](CCCCN)NC(=O)[C@@H](N)CCCCN)[C@@H](C)O)C(=O)N[C@@H](Cc1c[nH]c2ccccc12)C(=O)N[C@@H](Cc1ccc(O)cc1)C(=O)N[C@H](C(=O)N[C@@H](C)C(=O)N1CCC[C@H]1C(=O)N[C@@H](Cc1ccc(O)cc1)C(=O)N[C@@H](CCSC)C(=O)N[C@@H](Cc1ccccc1)C(=O)O)[C@@H](C)O [modified H10] (H-KKGTNSIWYTAPYMF-OH; N-terminus and C-terminus assumed)
- water solubility relative to H10 peptide [1]: substantially more water soluble

Compound: cholesterol oxidase
- cell migration of U87p75 glioma cells [2]: significantly inhibited cell migration
- GM1 localisation [3]: accumulate within the cells, particularly at the plasma membrane
- distribution of p75^NTR forms in density gradient fractions (p75^NTR in U87R cells): shift of higher molecular weight forms of p75^NTR into the denser gradient fractions
- intracellular localization or gradient fractionation of transferrin or its receptor [4]: no effect

Source: patent US9095541B2, “Brain tumor targeting peptides and methods” (Arch Cancer Therapeutics, Inc., priority 2009, dated 2015)
